Drawing on US20030236302A1, “Synthetic derivatives” (priority 2002, published 2003), this text covers IC50 and CC50 for 21 compounds.

Data set [1] relates to TNFα. The experiment in a line: TNFα production in IFN-primed, SAC-stimulated THP-1 cells (ELISA). It counts as cell-based, Human. Conditions: THP-1 cells primed by IFNα (100 U/mL) 22 h, stimulated with 0.025% SAC, supernatants after 24 h. The procedure:
(§1) Human monocytic THP-1 cells were primed by IFNα (100 U/mL) for 22 h and then stimulated with 0.025% SAC in the presence of different concentrations of a test compound. The test compounds were prepared in DMSO and the final DMSO concentration was adjusted to 0.25% in all cell cultures, including the compound-free control. Supernatants from the cultures were removed after 24 h, and assayed for productions of IL-12 and […]. Cell viability was assessed using the bioreduction of MTS [3-(4,5-dimethylthiazol-2-yl)-5-(3-carboxymethoxyphenyl)-2-(4-sulfophenyl)-2H-tetrazolium] (Promega, Madison, Wis.), with cell survival estimated as the ratio of the absorbance in compound-treated groups versus compound-free control. Human IL-12 p70 (heterodimer) and TNFα were assayed using ELISA kit from Endogen (Cambridge, Mass.), according to the manufacturer's instructions.
For orientation: ELISA stands for enzyme-linked immunosorbent assay.

Data set [2] is described as follows: Cell viability by MTS bioreduction. It counts as cell-based, Human. As to conditions: human, THP-1 monocytic cells (IFNα-primed, SAC-stimulated), THP-1 cells, survival vs compound-free control, read-out: CC50 (μM) Cell Toxicity. The procedure: as §1
Data set [3] has as its system Human IL-12 p70 (heterodimer). The experiment in a line: IL-12 production in IFN-primed, SAC-stimulated THP-1 cells (ELISA). As to conditions: THP-1 cells primed by IFNα (100 U/mL) 22 h, stimulated with 0.025% SAC, supernatants after 24 h. It counts as cell-based. The procedure:
as §1

The subject of data set [4] is Human monocytic THP-1 cells. Briefly: Cell viability by MTS bioreduction. It counts as cell-based. As to conditions: survival vs compound-free control, read-out: CC50 (μM) Cell Toxicity. The procedure: as §1

Where only a bound is given, the exact number is not on record here.

Broadly, the IC50 is the concentration that inhibits the measured activity by half. A high value points to a need for much substance. For orientation: CC50 means the concentration at which the toxic effect on the cells reaches its halfway point. For the compound `O=C1CC(=O)O[C@@H](CCc2ccccc2)C1` [Compound 1, S-(+)-6-Phenethyl-dihydro-pyran-2,4-dione], the IC50 came to 40 µM in data set [1] (Homo sapiens) and 30 µM in data set [3] (Homo sapiens). In data set [2], the CC50 at 24 h is above 100 µM.

With `O=C1CC(=O)O[C@@H](CCc2ccc(F)cc2)C1` [Compound 2, 6-[2-(4-Fluoro-phenyl)-ethyl]-dihydro-pyran-2,4-dione], the IC50 in data set [1] (Homo sapiens) and in data set [3] (Homo sapiens) was 30 µM throughout. The CC50 at 24 h in data set [2] is above 100 µM.

On to `O=C1CC(=O)O[C@@H](CCc2ccccc2F)C1` [Compound 3, (S)-6-[2-(2-fluoro-phenyl)-ethyl]-dihydro-pyran-2,4-dione], for which the figures for the IC50 in data set [1] (Homo sapiens) and in data set [3] (Homo sapiens) were 40 µM and 70 µM, respectively.

As to `O=C1CC(=O)O[C@@H](CCc2cccc(F)c2)C1` [Compound 4, (S)-6-[2-(3-Fluoro-phenyl)-ethyl]-dihydro-pyran-2,4-dione], the half-inhibitory concentration (IC50) in data set [1] (Homo sapiens) is 20 µM; in data set [3] (Homo sapiens) it was 40 µM. Besides, the cytotoxic concentration (CC50) at 24 h in data set [2] was above 100 µM.

Regarding `O=C1C=C(O)CC(/C=C/c2cccnc2)O1` (stereo not shown) [Compound 5, 6-(2-pyridin-3-yl-vinyl)-dihydro-pyran-2,4-one], the figures for the IC50 in data set [1] (Homo sapiens) and in data set [3] (Homo sapiens) were 100 µM and 80 µM, respectively. For the same compound, the CC50 at 24 h in data set [2] is above 100 µM.

With `COC1=CC(=O)OC(CCc2ccc[nH]2)C1` (stereo not shown) [Compound 6, 4-Methoxy-6-[2-(1H-pyrrol-2-yl)-ethyl]-5,6-dihydro-pyran-2-one], the IC50 turned out to be 100 µM in data set [1] (Homo sapiens) and 70 µM in data set [3] (Homo sapiens). Also, the CC50 at 24 h in data set [2] is above 100 µM.

Take `COC1=CC(=O)O[C@@H](CCc2ccccc2F)C1` [Compound 7, (S)-6-[2-(2-Fluoro-phenyl)-ethyl]-4-methoxy-5,6-dihydro-pyran-2-one]: the IC50 in data set [1] (Homo sapiens) was determined as 62 µM; in data set [3] (Homo sapiens), 38 µM. The CC50 at 24 h in data set [2] is above 100 µM.

With `COC1=CC(=O)O[C@@H](CCc2cccc(F)c2)C1` [Compound 8, (S)-6-[2-(3-Fluoro-phenyl)-ethyl]-4-methoxy-5,6-dihydro-pyran-2-one], the figures for the IC50 in data set [1] (Homo sapiens) and in data set [3] (Homo sapiens) were 70 µM and 65 µM, respectively. For the same compound, the CC50 at 24 h in data set [2] is above 100 µM.

Take `COC1=CC(=O)O[C@@H](CCc2ccc(F)cc2)C1` [Compound 9, (S)-6-[2-(4-Fluoro-phenyl)-ethyl]-4-methoxy-5,6-dihydro-pyran-2-one]: the IC50 in data set [1] (Homo sapiens) amounted to 100 µM; in data set [3] (Homo sapiens) it was 86 µM. Moreover, the CC50 at 24 h in data set [2] was above 100 µM.

On to `O=C1C=CC[C@H](CCc2ccccc2)O1` [Compound 10, (S)-6-Phenethyl-5,6-dihydro-pyran-2-one], for which the IC50 stood at 13 µM in data set [1] (Homo sapiens) and 10 µM in data set [3] (Homo sapiens). Moreover, in data set [2], the CC50 at 24 h was found to be 100 µM.

For the compound `O=C1C=CC[C@H](CCc2cccc(F)c2)O1` [Compound 11, S-6-[2-(3-Fluoro-phenyl)-ethyl]-5,6-dihydro-pyran-2-one], the IC50 in data set [1] (Homo sapiens) stood at 5 µM; in data set [3] (Homo sapiens), 10 µM. The CC50 at 24 h in data set [2] is 100 µM.

For the compound `COc1cc(CC[C@H]2CC=CC(=O)O2)cc(OC)c1OC` [Compound 12, S-6-[2-(3,4,5-trimethoxylphenyl)-ethyl]-5,6-dihydro-pyran-2-one], the IC50 in data set [1] (Homo sapiens) worked out at 25 µM; in data set [3] (Homo sapiens), 10 µM. Moreover, the CC50 at 24 h in data set [2] was found to be 100 µM.

For the compound `COC1=CC(=O)OC(C=Cc2ccc(C#N)cc2)C1` (stereo not shown) [Compound 13, 6-[2-(4-cyano-phenyl)-vinyl]-4-methoxy-5,6-dihydro-pyan-2-one], the CC50 in data set [4] was above 100 µM. Moreover, the IC50 in data set [3] stood at 80 µM.

With `COC1=CC(=O)OC(/C=C/c2ccc(F)c(F)c2)C1` (stereo not shown) [Compound 14, 6-[2-(3,4-difluoro-phenyl)-vinyl]-4-methoxy-5,6-dihydro-pyan-2-one], the IC50 in data set [1] (Homo sapiens) and in data set [3] (Homo sapiens) was 70 µM each time. Moreover, the CC50 at 24 h in data set [2] was above 100 µM.

For `COC1=CC(=O)OC(/C=C/c2ccc(F)c(F)c2F)C1` (stereo not shown) [Compound 15], the IC50 in data set [1] (Homo sapiens) was found to be 60 µM; in data set [3] (Homo sapiens), 90 µM. For the same compound, in data set [2], the CC50 at 24 h is above 100 µM.

On to `COC(=O)c1ccc(CCC2CC(OC)=CC(=O)O2)cc1` (stereo not shown) [Compound 16, 4-[2-(4-methoxy-6-oxo-3,6-dihydro-2H-pyran-2-yl)-ethyl]-benzoic acid methyl ester], for which the IC50 in data set [1] (Homo sapiens) and in data set [3] (Homo sapiens) was 80 µM throughout. In addition, the CC50 at 24 h in data set [2] was above 100 µM.

For the compound `COC1=CC(=O)OC(CCc2ccc(F)c(F)c2)C1` (stereo not shown) [Compound 17, 6-[2-(3,4-difluoro-phenyl)-ethyl]-4-methoxy-5,6-dihydro-pyan-2-one], the half-inhibitory concentration (IC50) in data set [1] and in data set [3] was 80 µM throughout. For the same compound, the CC50 in data set [4] was above 100 µM.

Turning to `COC1=CC(=O)OC(CCc2ccc(F)cc2)C1` (stereo not shown) [Compound 18, 6-[2-(4-fluoro-phenyl)-ethyl]-4-methoxy-5,6-dihydro-pyan-2-one], the IC50 in data set [1] was found to be 70 µM; in data set [3], 80 µM. The CC50 in data set [4] is above 100 µM.

As for `CC(C)OC1=CC(=O)O[C@@H](CCc2ccccc2)C1` [Compound 19, S-(+)-4-isopropoxy-6-phenethyl-5,6-dihydro-pyran-2-one], the IC50 in data set [1] (Homo sapiens) and in data set [3] (Homo sapiens) was 70 µM throughout. Also, the 50% cytotoxic concentration (CC50) at 24 h in data set [2] is above 100 µM.

As to `CCOC1=CC(=O)O[C@@H](CCc2ccccc2)C1` [Compound 20, (S)-4-Ethoxy-6-phenethyl-5,6-dihydro-pyran-2-one], the IC50 in data set [1] (Homo sapiens) turned out to be 100 µM; in data set [3] (Homo sapiens), 80 µM. The CC50 at 24 h in data set [2] was above 100 µM.

For `COC1=CC(=O)O[C@@H](CCc2cccnc2)C1` [Compound 21, 4-Methoxy-6-(2-pyridin-3-yl-ethyl)-5,6-dihydro-pyran-2-one], the IC50 in data set [1] (Homo sapiens) is 80 µM; in data set [3] (Homo sapiens), 100 µM. In addition, the 50% cytotoxic concentration (CC50) at 24 h in data set [2] is above 100 µM.
